One series has as its target MurD from E. coli (Escherichia coli, UniProt P14900). In words: Steady-state kinetic analysis on MurD. Type of series: biochemical. Particulars: for Ki: Ki (µM). The procedure: For compound 1, Ki values were determined against MurD from E. coli. Ki determinations were performed under similar conditions to those described for the MurD inhibition assay, where different concentration of one substrate and a fixed concentration of the other two were used. First, the concentration of UMA was varied (10, 20, 40, 80 µM) at fixed ATP (400 µM) and D-Glu (100 µM), then the concentration of D-Glu was varied (50, 100, 200, 400 µM) at fixed ATP (400 µM) and UMA (80 µM), and finally, the concentration of ATP was varied (100, 200, 400, 800 µM) at fixed UMA (80 µM) and D-Glu (100 µM). The concentrations of 1 were 0, 15, 30, 60, 90, 120, 180 and 250 µM. After a 15 min incubation, 100 µM Biomol green reagent was added, and the absorbance was read at 650 nm after 5 min. All of the experiments were run in triplicate. The data were analysed using the SigmaPlot 12.0 software. The initial velocities were fitted to competitive, non-competitive, uncompetitive and mixed enzyme inhibition. The Ki and mode of inhibition from the best ranking model were used, as provided by the software.

The target in the next series is E. coli MurE (Escherichia coli, UniProt P22188). In words: Malachite green inhibition assay, MurE. Type of series: biochemical. The procedure: Inhibition of the Mur ligases was determined using the malachite green assay, with slight modifications.
Chain of E. coli MurE (P22188 whole entry): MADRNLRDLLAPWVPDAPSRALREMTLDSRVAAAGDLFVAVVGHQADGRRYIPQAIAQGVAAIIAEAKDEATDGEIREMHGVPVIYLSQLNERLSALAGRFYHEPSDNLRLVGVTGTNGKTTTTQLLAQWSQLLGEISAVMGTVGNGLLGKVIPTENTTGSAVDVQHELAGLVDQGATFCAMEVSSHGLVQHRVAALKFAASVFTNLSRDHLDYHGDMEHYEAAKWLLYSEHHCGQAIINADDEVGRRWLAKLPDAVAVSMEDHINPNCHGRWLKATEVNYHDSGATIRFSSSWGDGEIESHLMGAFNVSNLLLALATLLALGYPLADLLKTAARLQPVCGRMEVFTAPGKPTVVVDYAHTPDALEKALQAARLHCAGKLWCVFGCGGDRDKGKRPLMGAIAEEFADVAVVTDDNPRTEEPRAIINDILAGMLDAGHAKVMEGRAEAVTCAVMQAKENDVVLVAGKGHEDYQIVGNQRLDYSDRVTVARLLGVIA
MurE: 50 mM Hepes, pH 8.0, 15 mM MgCl2, 0.005% Triton X-114, 60 µM meso-diaminopimelic acid, 100 µM uridine-5′-diphosphate-N-acetylmuramoyl-L-alanine-D-glutamate, 1000 µM ATP, and purified E. coli MurE[27].
In all cases, the final concentration of DMSO was 5% (v/v). After incubation for 15 min at 37 °C, the enzyme reaction was terminated by addition of 100 µM Biomol green reagent, and the absorbance was measured at 650 nm after 5 min. All of the experiments were run in duplicate. Residual activities were calculated with respect to control assays without the tested compounds, but with the 5% DMSO carrier.
The published kinase inhibitor set compounds were evaluated for inhibition of MurC, D and F ligases from E. coli using the Malachite green assay, which detects orthophosphate generated during enzymatic reactions. To avoid non-specific inhibition due to aggregate formation, all of the compounds were tested in the presence of detergent (0.005% Triton-X114). The data are presented as the residual activities of these Mur ligases in the presence of 100 µM of each test compound (Supporting Information Table S1). […]. The IC50 values against MurC, D, E and F were determined for the selected hit compounds – one representative compound from each structural class was chosen: compound 1[33], aza-stilbene derivative; compound 2[34], alkynyl pyrimidine; compound 3[35], pyrazolo [1,5]-b]pyridazine; compound 4[36], phenoxypyrimidine; compound 5[37], 4,6-bis-anilino-1H-pyrrolo[2,3-pyrimidine (Table 1). […]. […] Among the hits, compounds for further mechanistic studies were chosen on the basis of their ligand efficiency. Ligand efficiency quantifies the molecular properties, particularly size and lipophilicity and is used as a selection criterion for structurally different compounds as more ‘efficient’ ligands have the potential to control for the inflation of these properties[38] Thus ligand efficiencies were calculated for the four hits (Supporting Information Table S2)[39]^,[40], and compound 1 was selected as the most promising for additional studies. Additionally, regarding the data of profiled compounds in large panels of human kinase assays[41] […] To provide sufficient amounts of compound 1 for kinetic and NMR studies, it was resynthesized according to the synthetic procedures (Figure 2) described in the literature.

A further series has as its target E. coli MurC (Escherichia coli, UniProt P17952). Nature of the series: Malachite green inhibition assay, MurC. Type of series: biochemical.
A further series addresses E. coli MurF (Escherichia coli, UniProt P11880). In words: biochemical.
A short description of series [1]: Solubility observations in assay mixtures and NMR buffer. It is filed as physicochemical. Particulars: NMR buffer, MurD:ligand molar ratio 1:8, 0.07 mM MurD.
Where [2] appears, read: Table S3, aza stilbene compounds.
[3] abbreviates: residual activity at 100 µM compound, Table 1.

Results on one compound are retold here after PMC6522912, “Evaluation of the published kinase inhibitor set to identify multiple inhibitors of bacterial ATP-dependent mur ligases” (Journal of Enzyme Inhibition and Medicinal Chemistry, 2019).

Molecules are shown by their SMILES.

Chain of E. coli MurF (P11880 whole entry): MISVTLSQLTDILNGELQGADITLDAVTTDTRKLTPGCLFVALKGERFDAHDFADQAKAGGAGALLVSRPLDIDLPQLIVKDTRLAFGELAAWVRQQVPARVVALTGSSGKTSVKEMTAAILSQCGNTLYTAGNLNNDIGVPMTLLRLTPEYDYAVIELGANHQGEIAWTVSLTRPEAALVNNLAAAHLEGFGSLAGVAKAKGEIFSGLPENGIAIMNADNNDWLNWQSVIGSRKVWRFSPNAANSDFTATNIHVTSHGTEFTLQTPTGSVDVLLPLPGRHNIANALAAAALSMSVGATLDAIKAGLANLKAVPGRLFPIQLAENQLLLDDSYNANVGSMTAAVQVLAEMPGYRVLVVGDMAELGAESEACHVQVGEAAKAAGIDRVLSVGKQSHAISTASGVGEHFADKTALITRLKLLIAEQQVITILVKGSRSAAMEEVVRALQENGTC
Chain of E. coli MurC (P17952 whole entry): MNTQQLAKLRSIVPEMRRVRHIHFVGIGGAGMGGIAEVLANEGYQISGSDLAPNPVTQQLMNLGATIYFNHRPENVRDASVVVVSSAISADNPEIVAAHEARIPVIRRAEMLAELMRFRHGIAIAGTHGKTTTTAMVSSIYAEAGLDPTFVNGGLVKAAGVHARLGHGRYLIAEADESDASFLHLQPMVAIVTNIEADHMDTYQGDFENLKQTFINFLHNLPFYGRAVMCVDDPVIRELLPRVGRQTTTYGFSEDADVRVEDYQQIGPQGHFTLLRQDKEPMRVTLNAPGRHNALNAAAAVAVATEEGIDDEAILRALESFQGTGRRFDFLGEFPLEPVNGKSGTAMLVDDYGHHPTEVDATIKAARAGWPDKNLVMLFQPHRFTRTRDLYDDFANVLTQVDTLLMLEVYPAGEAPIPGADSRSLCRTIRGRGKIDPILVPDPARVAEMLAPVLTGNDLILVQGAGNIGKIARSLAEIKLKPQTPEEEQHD
Chain of MurD from E. coli (P14900 whole entry): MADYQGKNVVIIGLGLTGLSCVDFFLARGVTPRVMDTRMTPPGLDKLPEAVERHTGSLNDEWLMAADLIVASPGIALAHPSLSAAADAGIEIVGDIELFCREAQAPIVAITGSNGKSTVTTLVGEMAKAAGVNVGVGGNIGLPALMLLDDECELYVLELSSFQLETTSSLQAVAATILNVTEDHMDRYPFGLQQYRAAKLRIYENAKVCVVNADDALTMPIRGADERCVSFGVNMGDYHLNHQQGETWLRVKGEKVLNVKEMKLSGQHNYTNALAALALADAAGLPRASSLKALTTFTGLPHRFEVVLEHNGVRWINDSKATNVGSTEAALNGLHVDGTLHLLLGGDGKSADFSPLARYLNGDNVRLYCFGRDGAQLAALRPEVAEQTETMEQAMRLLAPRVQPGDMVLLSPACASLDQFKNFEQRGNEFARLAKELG

Take `Cc1cc(-c2ccco2)cc(C)c1/C=C/c1cncc(-c2nn[nH]n2)c1` [Compound 1]: the Ki stood at 18.7 ± 2.6 µM on MurD from E. coli (substrate ATP varied, fixed D-Glu 100 µM, UMA 80 µM); 65.5 ± 4.9 µM at MurD from E. coli (substrate D-Glu varied, fixed ATP 400 µM, UMA 80 µM); 14.8 ± 11.2 µM on MurD from E. coli (substrate UMA varied, fixed ATP 400 µM, D-Glu 100 µM). The values for the Inhibition mechanism result on MurD from E. coli (versus substrate ATP), at MurD from E. coli (versus substrate D-Glu) and on MurD from E. coli (versus substrate UMA) were “Mixed (full)”, “Competitive (full)” and “Mixed (partial)”, respectively. Besides, the IC50 came to 79 µM against E. coli MurE; 368 µM at E. coli MurC (Table 1, read-out: MurC IC50); 59 µM against E. coli MurF (Table 1). Also, the “RA (%) MurE” value at E. coli MurE (setting [2]) is listed as 49%. The “MurE RA [%]” value on E. coli MurE (setting [3]) is given as 49%. Further, the remaining activity at 100 µM on E. coli MurC (0.25 h, Table S1, PKIS screening, read-out: RA [%] at 100 µM MurC) stood at 70%; on E. coli MurF (0.25 h, Table S1, PKIS screening, read-out: RA [%] at 100 µM MurF) it was 26%. Besides, the “RA (%) MurC” value at E. coli MurC (setting [2]) stood at 70%. Also, the “MurC RA [%]” value at E. coli MurC (setting [3]) is 70%. Besides, the “RA (%) MurF” value on E. coli MurF (setting [2]) is 26%. The “LE (MurF)” value on E. coli MurF (ligand efficiency, LE = (1.37 × pIC50)/HAC) is on record as 0.22. For the same compound, the “MurF RA [%]” value on E. coli MurF (setting [3]) is on record as 26%. The solubility entry in series [1] is “not completely dissolved”.

What is called Ki is the equilibrium dissociation constant of an inhibitor or competing ligand from its target. The term IC50 denotes the point on the concentration scale where inhibition reaches its midpoint.
